Laboratory results published in patent US12281328B2, “Photoreceptor cells for the treatment of retinal diseases” (Hadasit Medical Research Services and Development Ltd., priority 2017, dated 2025).
Blank lines part the entries; values can stand above or below the molecule they belong to.

Test system: hESC-derived spheroid bodies (SBs), HAD-C102
Test: Real-time PCR of eye field, retinal progenitor and photoreceptor progenitor markers in SBs cultured with factor combinations
Format: cell-based, human
Description: SBs were generated under non-adherent conditions (day 0) from cord-feeder-conditioned media culture systems, or from feeder free laminin 521 culture systems, as described above. SBs were cultured in the following medium: […]® minus medium (Biological industries, Beit Haemek, Israel) supplemented with 50 U/ml penicillin and 50 μg/ml streptomycin (Gibco-BRL, Carlsbad, Calif.). In the initial 0 to 6 days of SBs culture (under non-adherent conditions), the medium was supplemented with 10 mM nicotinamide (Sigma, St. Louis, Mo.). It was further supplemented with the addition of the following factors in different combinations: 10 mM nicotinamide (Sigma, St. Louis, Mo.), 3 μM endo-IWR 1 (IWR1e; TOCRIS, a biotechne brand, Minneapolis, Minn.), 20 ng/ml bFGF (PeproTech Inc., Rocky Hill, N.J.), 5 ng/ml IGF1 (R&D Systems Inc., Minneapolis, Minn.) and 3 μM CHIR99021 (CHIR; PeproTech Inc., Rocky Hill, N.J.).
Real-time PCR was used to determine the expression of eye field and retinal progenitor markers and photoreceptor progenitor markers. mRNA was extracted using QUICK-RNA Micro Prep, Zymo Research (Cat #R1051) and the RT reaction was accomplished with QSCRIPT™ reverse transcriptase (Quanta BioScience Inc., Gaithersburg, Md.). The levels of transcripts were monitored using commercially available TAQMAN™ Assay-on-Demand Gene Expression Products (Applies Biosystems, Foster City, Calif.). The expression of eye field and photoreceptor precursor markers were analyzed at time points of 14 days to 8 weeks. At Time point 0 (TO), the derivation of SBs and the beginning of their culture in non-adherent culture dishes were initiated.
SBs were treated with combinations of NIC, bFGF, CHIR and IGF1 for 1 month. At the end of these culture periods, the expression of eye field and retinal progenitor markers (Rx, Six3, Six6, Chx10) and photoreceptor progenitor markers (NRL, CRX) was analyzed by Real-time PCR. […] FIG. 3 through FIG. 8 show graphs illustrating marker expression of Six3, Six6, Chx10, Rx, CRX, and NRL, respectively, in SBs cultured in NIC+bFGF or NIC+IGF or NIC+bFGF+CHIR for 4 weeks. Relative quantity of gene expression is plotted against different conditions. FIG. 9 through FIG. 14 show graphs illustrating marker expression of Six3, Six6, Chx10, Rx, CRX, and NRL, respectively, in SBs cultured in NIC+bFGF or NIC+bFGF+CHIR for 17 days. The control, HADC102, was comprised of undifferentiated HAD-C102 cells cultured for 6-7 days in […]® hPSC XF*Xeno-free medium for Human Pluripotent Stem Cells (Biological Industries).

expression of all the markers analyzed (Rx, Pax6, Six3, Six6, Chx10) (SBs from hESCs cultured on laminin 521 vs gelatin in cord feeder conditioned medium, NIH 5 weeks, FIG. 50-58): higher | efficiency of differentiation (initial culturing of hESC on laminin 521 vs gelatin in feeder cell conditioned medium): more efficient differentiation result
Molecule: Laminin 521: laminin 521 (BioLamina) coating for feeder-free culture of hESCs before SB formation

expression of the eye field and retinal progenitor markers Pax6, Rx, Six3, Six6 and Chx10 (compared among NIC+IWR1e, NIC, IWR1e, IWR1e+bFGF, FIG. 26-35): much lower
Molecule: O=C(Nc1cccc2cccnc12)c1ccc(N2C(=O)[C@@H]3[C@H](C2=O)[C@@H]2C=C[C@H]3C2)cc1 [IWR1e, 4-[(3aR,4S,7R,7aS)-1,3,3a,4,7,7a-hexahydro-1,3-dioxo-4,7-metha-no-2H-isoindol-2-yl]-N-8-quinolinyl-benzamide]
expression of markers of hESC-derived photoreceptor progenitors (SBs cultured 20 days, Pax6, Six3, Rx, Six6, Chx10, FIG. 21-25): induced the expression of markers of hESC-derived photoreceptor progenitors

Molecule: NC(=O)c1cccnc1 [NIC, nicotinamide]
generation of photoreceptor cells from human pluripotent stem cells (evidenced by expression of markers of photoreceptor cells (RT-PCR)): sufficient to generate photoreceptor cells from human pluripotent stem cells
